Assay results as given in patent US20260256826A1, “PREPARATION METHOD AND APPLICATION OF ZINC HYALURONATE” (BLOOMAGE BIOTECHNOLOGY CORPORATION LIMITED, priority 2022, published 2026).

Assays:
[1] = Hydroxyl radical scavenging, salicylic acid method; details: 0.5% solution
From the text: The salicylic acid method was used to determine the hydroxyl radical scavenging ability of zinc hyaluronate samples. A certain amount of H2O2 and FeSO4 were mixed to produce hydroxyl radicals by Fenton reaction. Adding salicylic acid to the reaction system can capture hydroxyl radicals and produce 3-hydroxysalicylic acid and 5-hydroxysalicylic acid. Both products have strong absorption at 510 nm. The reaction equation is as follows: The addition of the sample will compete with salicylic acid for the reaction with OH, thereby reducing the production of 3-hydroxysalicylic acid and 5-hydroxysalicylic acid. The fixed reaction time method was used to measure the absorbance of the reaction solution at 510 nm and compare it with the blank solution to determine the scavenging effect of the analyte on hydroxyl free radicals. The scavenging rate is calculated as follows: In the formula, S is the scavenging rate, A0 is the absorbance value of the blank control, Ax is the absorbance value when the sample is added, and Ax0 is the absorbance value without adding the color developer.

[2] = Superoxide anion scavenging, pyrogallol self-oxidation method; details: 0.5% solution
Protocol: The pyrogallol self-oxidation method was used. Under weakly alkaline conditions, pyrogallol can undergo self-oxidation reaction to generate superoxide anions and a colored intermediate product with a characteristic absorption peak at 320 nm. In the initial trial stage, the amount of intermediate product is linearly related to time. Since the self-oxidation rate depends on the concentration of superoxide anions, when a superoxide anion scavenger is added, it can react quickly with superoxide anions to inhibit the self-oxidation reaction, thereby preventing the accumulation of intermediates and weakening the light absorption of the solution at 320 nm. Therefore, the scavenging effect of the scavenger on superoxide anions can be evaluated by measuring the […] value. scavenging rate of superoxide anion free radical (%)=(A0-Ax)/A0×100%

SMILES: CC(=O)[O-].CC(=O)[O-].[Zn+2] [zinc acetate dihydrate]
- hydroxyl free radical scavenging ability (in words) [1]: significantly lower than that of HA-Zn
- superoxide anion free radical scavenging ability (in words) [2]: significantly lower than that of HA-Zn
